Measurements taken from US20260242335A1, “HETEROCYCLOALKYL BETA-HYDROXY ALKYL AMINES FOR USE IN THE TREATMENT OF HYPERGLYCAEMIA AND DISORDERS CHARACTERISED BY HYPERGLYCAEMIA” (ATROGI AB, priority 2023, published 2026).
Counter-ions that a name gives are not always drawn.

Key:
L6-myotubes [1] = assay: Measurement of intracellular cAMP levels (alpha screen cAMP kit) in differentiated cells, compared to isoproterenol; format: cell-based; conditions: 0.25 h, compound at 10 μM vs isoproterenol at 10 μM, 15 min stimulation, read-out: Biological example 2: intracellular cAMP level activity compared to that of isoproterenol
Procedure: (§1) L6-myoblasts were grown in Dulbecco's Modified Eagle's Medium (DMEM) containing 1 g/L glucose supplemented with 10% fetal bovine serum, 2 mM L-Glutamine, 50 U/mL penicillin, […] streptomycin and 10 mM HEPES. Cells were plated at 1×10^5 cells per mL in 24-well plates. After reaching 90% confluence the cells were grown in medium containing 2% FBS for 7 days where upon cells differentiated into myotubes.
Differentiated cells were serum-starved overnight and stimulated with an agonist, final concentration 1×10^−5 M, for 15 min in stimulation buffer (HBSS supplemented with 1% BSA, 5 mM HEPES and 1 mM IBMX, pH 7.4). The medium was aspirated and 100 μL of 95% EtOH was added to each well of the 24-well plate and cells were kept at −20° C. overnight. The EtOH was allowed to evaporate and 500 μL of lysis buffer (1% BSA, 5 mM HEPES and 0.3% Tween-20, pH 7.4) was added to each well. The plate was kept at −80° C. for 30 min and then at −20° C. until the day of detection when the samples were thawed. Intracellular cAMP levels were detected using an alpha screen cAMP kit (6760635D from Perkin Elmer). The activity for each compound is compared to that of isoproterenol.

L6-myotubes [2] = assay: Glucose uptake (3H-2-deoxyglucose) in differentiated L6-myotubes, compared to isoproterenol; format: cell-based; conditions: compound at 10 μM vs isoproterenol at 10 μM, read-out: Biological example 1: glucose uptake activity compared to that of isoproterenol
Procedure: as §1
Differentiated L6-myotubes were serum-starved overnight in medium containing 0.5% fatty-acid free BSA and stimulated with an agonist, with a final concentration of 1×10^−5 M. After 1 h 40 min the cells were washed with warm glucose free medium or PBS twice and another portion of agonist was added to the glucose free medium. After 20 min the cells were exposed to 50 nM ^3H-2-deoxyglucose for another 10 min before washed in ice cold glucose free medium or PBS three times and lysed in 400 μL/well 0.2 M NaOH for 1 h at 60° C. The cell lysate was mixed with 4 mL scintillation buffer (Emulsifier Safe, Perkin Elmer) and the radioactivity was detected in a p-counter (Tri-Carb 4810TR, Perkin Elmer). The activity for each compound is compared to that of isoproterenol.

`CC(C)(C[C@H]1CCN(S(C)(=O)=O)C1)NC[C@H](O)c1cncc(F)c1` [Example 63, (R)-1-(5-Fluoropyridin-3-yl)-2-((2-methyl-1-((R)-1-(methylsulfonyl)-pyrrolidin-3-yl)propan-2-yl)amino)ethan-1-ol] gave an Emax at 10 µM (L6-myotubes [1]) of under 25% and an Emax at 10 µM (L6-myotubes [2]) of over 75%.
Work on `CC(C)(C[C@@H]1CCCN(S(C)(=O)=O)C1)NC[C@H](O)c1cncc(F)c1` [Example 14, (R)-1-(5-Fluoropyridin-3-yl)-2-((2-methyl-1-((S)-1-(methylsulfonyl)-piperidin-3-yl)propan-2-yl)amino)ethan-1-ol hydrochloride] yielded an Emax at 10 µM (L6-myotubes [1]) of under 25% and an Emax at 10 µM (L6-myotubes [2]) of 50 to 75%.
`CC(=O)N1CC[C@H](CC(C)(C)NC[C@H](O)c2cccc(F)c2)C1` [Example 58, 1-((R)-3-(2-(((R)-2-(3-Fluorophenyl)-2-hydroxyethyl)amino)-2-methylpropyl)pyrrolidin-1-yl)ethan-1-one] was tested, and the Emax at 10 µM (L6-myotubes [1]) was under 25% and the Emax at 10 µM (L6-myotubes [2]) was over 75%.
Work on `CC(C)(C[C@@H]1CCCN(S(C)(=O)=O)C1)NC[C@H](O)c1cccc(C(F)(F)F)n1` [Example 23, (S)-2-((2-Methyl-1-((S)-1-(methylsulfonyl)piperidin-3-yl)propan-2-yl)-amino)-1-(6-(trifluoromethyl)pyridin-2-yl)ethan-1-ol dihydrochloride] yielded an Emax at 10 µM (L6-myotubes [1]) of under 25% and an Emax at 10 µM (L6-myotubes [2]) of 50 to 75%.
`CC(C)(CC1CCN(S(C)(=O)=O)CC1)NC[C@H](O)c1cncc(F)c1` [Example 35, (R)-1-(5-Fluoropyridin-3-yl)-2-((2-methyl-1-(1-(methylsulfonyl)-piperidin-4-yl)propan-2-yl)amino)ethan-1-ol dihydrochloride] gave an Emax at 10 µM (L6-myotubes [1]) of under 25% and an Emax at 10 µM (L6-myotubes [2]) of 50 to 75%.
`CC(C)(C[C@@H]1CCNC1)NC[C@H](O)c1cccc(F)c1` [Example 65, (R)-1-(3-Fluorophenyl)-2-((2-methyl-1-((S)-pyrrolidin-3-yl)propan-2-yl)amino)ethan-1-ol] gave an Emax at 10 µM (L6-myotubes [1]) of over 75% and an Emax at 10 µM (L6-myotubes [2]) of over 75%.
`CC(C)(CC1CCN(C(=O)C(F)(F)F)CC1)NC[C@H](O)c1cccc(F)c1` [Example 42, (R)-2,2,2-Trifluoro-1-(4-(2-((2-(3-fluorophenyl)-2-hydroxyethyl)-amino)-2-methylpropyl)piperidin-1-yl)ethan-1-one] gave an Emax at 10 µM (L6-myotubes [1]) of under 25% and an Emax at 10 µM (L6-myotubes [2]) of 25 to 50%.
Compound `CC(=O)N1CC[C@H](CC(C)(C)NC[C@H](O)c2cncc(F)c2)C1` [Example 62, 1-((R)-3-(2-(((R)-2-(5-Fluoropyridin-3-yl)-2-hydroxyethyl)amino)-2-methylpropyl)pyrrolidin-1-yl)ethan-1-one] has an Emax at 10 µM (L6-myotubes [1]) of under 25% and an Emax at 10 µM (L6-myotubes [2]) of over 75%.
Work on `CNC(=O)N1CCC(CC(C)(C)NC[C@H](O)c2cccc(F)c2)CC1` [Example 45, (R)-4-(2-((2-(3-Fluorophenyl)-2-hydroxyethyl)amino)-2-methyl-propyl)-N-methylpiperidine-1-carboxamide] yielded an Emax at 10 µM (L6-myotubes [1]) of under 25% and an Emax at 10 µM (L6-myotubes [2]) of 50 to 75%.
Work on `CC(C)(C[C@@H]1CCN(C(=O)OC(C)(C)C)C1)NC[C@H](O)c1cccc(F)c1` [Example 64, tert-Butyl (S)-3-(2-(((R)-2-(3-fluorophenyl)-2-hydroxyethyl)amino)-2-methylpropyl)pyrrolidine-1-carboxylate] yielded an Emax at 10 µM (L6-myotubes [1]) of over 75% and an Emax at 10 µM (L6-myotubes [2]) of 50 to 75%.
Work on `CC(C)(C[C@H]1CCC(=O)NC1)NC[C@H](O)c1cccc(F)c1` [Example 38, (R)-5-(2-(((R)-2-(3-Fluorophenyl)-2-hydroxyethyl)amino)-2-methyl-propyl)piperidin-2-one hydrochloride] yielded an Emax at 10 µM (L6-myotubes [1]) of under 25% and an Emax at 10 µM (L6-myotubes [2]) of over 75%.
Work on `CN(C)C(=O)N1CCC[C@@H](CC(C)(C)NC[C@H](O)c2cccc(F)c2)C1` [Example 8, (S)-3-(2-(((R)-2-(3-Fluorophenyl)-2-hydroxyethyl)amino)-2-methyl-propyl)-N,N-dimethylpiperidine-1-carboxamide] yielded an Emax at 10 µM (L6-myotubes [1]) of under 25% and an Emax at 10 µM (L6-myotubes [2]) of over 75%.
Work on `CNC(=O)N1CCC[C@@H](CC(C)(C)NC[C@H](O)c2cccc(F)c2)C1` [Example 9, (S)-3-(2-(((R)-2-(3-Fluorophenyl)-2-hydroxyethyl)amino)-2-methyl-propyl)-N-methylpiperidine-1-carboxamide hydrochloride] yielded an Emax at 10 µM (L6-myotubes [1]) of 25 to 50% and an Emax at 10 µM (L6-myotubes [2]) of over 75%.
`CC(C)(C[C@H]1CCCN(S(C)(=O)=O)C1)NC[C@H](O)c1cccc(F)c1` [Example 25, (R)-1-(3-Fluorophenyl)-2-((2-methyl-1-((R)-1-(methylsulfonyl)-piperidin-3-yl)propan-2-yl)amino)ethan-1-ol hydrochloride] was tested, and the Emax at 10 µM (L6-myotubes [1]) was under 25% and the Emax at 10 µM (L6-myotubes [2]) was 25 to 50%.
For `CC(C)(C[C@H]1CCCN(C(=O)OC(C)(C)C)C1)NC[C@H](O)c1cncc(F)c1` [Example 40, tert-Butyl (R)-3-(2-(((R)-2-(5-fluoropyridin-3-yl)-2-hydroxyethyl)-amino)-2-methylpropyl)piperidine-1-carboxylate], the Emax at 10 µM (L6-myotubes [1]) was under 25% and the Emax at 10 µM (L6-myotubes [2]) was over 75%.
In the case of `CC(C)(C[C@H]1CNC(=O)C1)NC[C@H](O)c1cncc(F)c1` [Example 78, (R)-4-(2-(((R)-2-(5-Fluoropyridin-3-yl)-2-hydroxyethyl)amino)-2-methylpropyl)pyrrolidin-2-one dihydrochloride], the Emax at 10 µM (L6-myotubes [1]) was under 25% and the Emax at 10 µM (L6-myotubes [2]) was over 75%.
Compound `CC(C)(CC1CCOCC1)NC[C@H](O)c1cccc(F)c1` [Example 80, (R)-1-(3-Fluorophenyl)-2-((2-methyl-1-(tetrahydro-2H-pyran-4-yl)-propan-2-yl)amino)ethan-1-ol] has an Emax at 10 µM (L6-myotubes [1]) of under 25% and an Emax at 10 µM (L6-myotubes [2]) of over 75%.
`COC1CCN(CC(C)(C)NC[C@H](O)c2cccc(F)c2)CC1` [Example 85, (R)-1-(3-Fluorophenyl)-2-((1-(4-methoxypiperidin-1-yl)-2-methyl-propan-2-yl)amino)ethan-1-ol dihydrochloride] showed an Emax at 10 µM (L6-myotubes [1]) of under 25% and an Emax at 10 µM (L6-myotubes [2]) of over 75%.
With `CC(=O)N1CC[C@@H](CC(C)(C)NC[C@H](O)c2cccc(F)c2)C1` [Example 66, 1-((S)-3-(2-(((R)-2-(3-Fluorophenyl)-2-hydroxyethyl)amino)-2-methylpropyl)pyrrolidin-1-yl)ethan-1-one] the Emax at 10 µM (L6-myotubes [1]) was 25 to 50% and the Emax at 10 µM (L6-myotubes [2]) was over 75%.
Compound `CC(C)(C[C@@H]1CCN(S(C)(=O)=O)C1)NC[C@H](O)c1cccc(F)c1` [Example 67, (R)-1-(3-Fluorophenyl)-2-((2-methyl-1-((S)-1-(methylsulfonyl)-pyrrolidin-3-yl)propan-2-yl)amino)ethan-1-ol] has an Emax at 10 µM (L6-myotubes [1]) of under 25% and an Emax at 10 µM (L6-myotubes [2]) of over 75%.
For `CC(C)(C[C@@H]1CCCN(C(=O)C(C)(C)C)C1)NC[C@H](O)c1cccc(F)c1` [Example 5, 1-((S)-3-(2-(((R)-2-(3-Fluorophenyl)-2-hydroxyethyl)amino)-2-methylpropyl)piperidin-1-yl)-2,2-dimethylpropan-1-one], the Emax at 10 µM (L6-myotubes [1]) was under 25% and the Emax at 10 µM (L6-myotubes [2]) was 50 to 75%.
`CC(=O)N1CCC(CC(C)(C)NC[C@H](O)c2cccc(F)c2)CC1` [Example 30, (R)-1-(4-(2-((2-(3-Fluorophenyl)-2-hydroxyethyl)amino)-2-methyl-propyl)piperidin-1-yl)ethan-1-one hydrochloride] gave an Emax at 10 µM (L6-myotubes [1]) of under 25% and an Emax at 10 µM (L6-myotubes [2]) of over 75%.
Compound `CC(C)(C[C@H]1CCCCO1)NC[C@H](O)c1cccc(F)c1` [Example 81, (R)-1-(3-Fluorophenyl)-2-((2-methyl-1-((R)-tetrahydro-2H-pyran-2-yl)propan-2-yl)amino)ethan-1-ol] has an Emax at 10 µM (L6-myotubes [1]) of 25 to 50% and an Emax at 10 µM (L6-myotubes [2]) of over 75%.
With `CC(C)(C[C@H]1CCN(C(=O)OC(C)(C)C)C1)NC[C@H](O)c1cncc(F)c1` [Example 60, tert-Butyl (R)-3-(2-(((R)-2-(5-fluoropyridin-3-yl)-2-hydroxyethyl)-amino)-2-methylpropyl)pyrrolidine-1-carboxylate] the Emax at 10 µM (L6-myotubes [1]) was under 25% and the Emax at 10 µM (L6-myotubes [2]) was 50 to 75%.
`CC(=O)N1CC[C@@H](CC(C)(C)NC[C@H](O)c2cncc(F)c2)C1` [Example 70, 1-((S)-3-(2-(((R)-2-(5-Fluoropyridin-3-yl)-2-hydroxyethyl)amino)-2-methylpropyl)pyrrolidin-1-yl)ethan-1-one] gave an Emax at 10 µM (L6-myotubes [1]) of under 25% and an Emax at 10 µM (L6-myotubes [2]) of over 75%.
For `CC(C)(CC1CCN(C(=O)OC(C)(C)C)CC1)NC[C@H](O)c1cncc(F)c1` [Example 33, tert-Butyl (R)-4-(2-((2-(5-fluoropyridin-3-yl)-2-hydroxyethyl)amino)-2-methylpropyl)piperidine-1-carboxylate], the Emax at 10 µM (L6-myotubes [1]) was under 25% and the Emax at 10 µM (L6-myotubes [2]) was over 75%.
`COC(=O)N1CCC(CC(C)(C)NC[C@H](O)c2cncc(F)c2)CC1` [Example 49, Methyl (R)-4-(2-((2-(5-Fluoropyridin-3-yl)-2-hydroxyethyl)amino)-2-methylpropyl)piperidine-1-carboxylate dihydrochloride] gave an Emax at 10 µM (L6-myotubes [1]) of under 25% and an Emax at 10 µM (L6-myotubes [2]) of over 75%.
